Test results: US5021408A, “Hydrocortisone-17-oxo-21-thioesters, their preparation and their uses as medicaments” (Jouveinal S.A., priority 1983, dated 1991)
Read-outs that look alike come from different tables or passages of the source.

Tests used:
[1] = system: inflammation of the ear in the mouse; assay: Local anti-inflammatory activity, croton oil ear inflammation (method derived from Tonelli); assay type: in vivo; conditions: for Anti-inflammatory activity EC50: mouse ear, croton oil, concentration giving 50% reduction in inflammation vs controls; for Anti-inflammatory activity: Activity/ref. 21 act. hydro: relative to hydrocortisone-21-acetate = 1
Protocol: I.1. Local anti-inflammatory activity
This study was carried out in accordance with a method derived from that of Tonelli (Endocrinology, Vol. 77, page 625, 1965).
The test consists of causing inflammation of the ear in the mouse using a croton oil-based irritating solution.
The addition of a local anti-inflammatory substance to this solution leads to a reduced inflammation action compared with that of the controls, i.e. treated with the irritating solution only.
The results of the study are expressed in EC50, which is the p/v % concentration of the dissolved product able to bring about a 50% reduction in the inflammation compared with that caused in the controls.

[2] = Systemic (thymolytic) activity, thymus weight reduction after oral administration; assay type: in vivo, rat (Wistar); conditions: rat
Protocol: (§1) Determination of systemic activity side effects
(§2) These effects were evaluated by means of their thymolytic activity.
(§3) The repeated administration of systemic activity products leads to a weakening of the defence systems of the organism. More especially in young animals, this leads to a reduction in the weight of two organs of the reticuloendothelial system, namely the spleen and the thymus, the latter being the most sensitive to this effect.
(§4) This activity was determined by means of a study of the activity of products on the weight reduction of the thymus of animals.
(§5) The product to be studied, suspended in 5% p/v gum arabic were orally administered daily for four consecutive days to young rats of the Wistar strain. Under the same conditions, a control batch of animals received an identical volume of the excipient.
(§6) 96 hours after the first administration, the animals were killed and their thymus removed and immediately weighed.
(§7) The results of the study are expressed in ED50, which corresponds to the daily dose in milligrams able to bring about a 50% thymus weight reduction for 1 kilogram animal weight, compared with the controls (mg/kg^-1 /day^-1).

thymus weight = assay: as above; assay type: in vivo, rat (Wistar)
Protocol: as §1, §2, §3, §4, §5, §6, §7

[3] = Dissociation ratio R local anti-inflammatory activity / systemic activity; assay type: in vivo, mouse (ear inflammation) and rat (thymus); conditions: lower value = greater dissociation of activities
Protocol: The results obtained by this study make it possible to calculate the activity ratio:
local anti-inflammatory activity
The value of this ratio indicates the dissociation of the activities and is inversely proportional to the size of the dissociation, i.e. the lower this value, the greater the dissociation.
This value was calculated on the basis of the expression: [formula]

granuloma = conditions: according to N. Bodor; cited from earlier work
erythema = conditions: reported by O. J. Lorenzetti; cited from earlier work
[4] = relative to hydrocortisone-21-acetate = 1
[5] = young Wistar rats, oral, daily for four consecutive days, 50% thymus weight reduction vs controls, read-out: Systemic activity ED50

Compound | Anti-inflammatory activity EC50 [1] [% p/v] | Anti-inflammatory activity: Activity/ref. 21 act. hydro [1] | ED50 at 96 h ([2]; in vivo, young Wistar rats, oral, daily for four consecutive days, 50% thymus weight reduction vs controls, read-out: Systemic activity ED50) [mg/kg] | Systemic activity: Activity/ref. 21 act. hydro (thymus weight; [4]) | R (local anti-inflammatory activity / systemic activity) [3] | ED50 at 96 h ([2]; in vivo, po) [mg/kg] | Systemic activity: Activity/ref. 21 act. hydro (thymus weight; rat, in vivo, 5760 min) | ED50 at 96 h [2, 5] [mg/kg] | systemic activity, times lower than that of prednisolone-21-thioacetate-17-valerate (thymus weight; rat, in vivo, po, 5760 min) [times] | activity in the granuloma test (granuloma) | activity in the erythema test compared with the vasoconstriction test (erythema)
CC(C)(C)C(=O)SCC(=O)[C@@]1(O)CC[C@H]2[C@@H]3CCC4=CC(=O)CC[C@]4(C)[C@H]3[C@@H](O)C[C@@]21C [Hydrocortisone-21-thiopivalate, hydrocortisone-21-thiopivalate] | 2.5 | 0.12 | 3600 | 0.0038 | 6.90 | – | – | – | – | – | –
CCC(=O)O[C@]1(C(=O)CSC(=O)CC)[C@@H](C)C[C@H]2[C@@H]3CCC4=CC(=O)C=C[C@]4(C)[C@@]3(F)[C@@H](O)C[C@@]21C [betamethasone-21-thiopropionate-17-propionate] | 0.0013 | 231 | – | – | 4.33 | 3 | 4.66 | – | – | – | –
CC(=O)O[C@]1(C(=O)CSC(=O)CC(C)(C)C)[C@H](C)C[C@H]2[C@@H]3CCC4=CC(=O)C=C[C@]4(C)[C@@]3(F)[C@@H](O)C[C@@]21C [dexamethasone-21-thiotertiobutylacetate-17-acetate] | 0.0092 | 32.6 | – | – | 30.7 | 3 | 4.67 | – | – | – | –
CCCC(=O)O[C@]1(C(=O)COC(=O)CC)CC[C@H]2[C@@H]3CCC4=CC(=O)CC[C@]4(C)[C@H]3[C@@H](O)C[C@@]21C [Hydrocortisone-21-propionate-17-butyrate, hydrocortisone-21-propionate-17-butyrate] | 0.0047 | 63.8 | – | 1.95 | 6.52 | – | – | 7.2 | – | – | –
CCCCC(=O)O[C@]1(C(=O)CSC(C)=O)CC[C@H]2[C@@H]3CCC4=CC(=O)C=C[C@]4(C)[C@H]3[C@@H](O)C[C@@]21C [Prednisolone-21-thioacetate-17-valerate] | 0.008 | 37.5 | – | – | 1.38 | 58 | 0.24 | – | – | – | –
CCC(=O)O[C@]1(C(=O)CSC(=O)CC)[C@@H](C)C[C@H]2[C@@H]3CCC4=CC(=O)C=C[C@]4(C)[C@@]3(Cl)[C@@H](O)C[C@@]21C [beclomethasone-21-thiopropionate-17-propionate] | 0.0175 | 17.1 | – | – | 9.21 | 19 | 0.74 | – | – | – | –
CCCCC(=O)O[C@]1(C(=O)CSC(C)=O)CC[C@H]2[C@@H]3C[C@H](C)C4=CC(=O)C=C[C@]4(C)[C@H]3[C@@H](O)C[C@@]21C [6-α-methylprednisolone-21-thioacetate-17-valerate] | 0.5 | 0.6 | – | – | 116.3 | 43 | 0.325 | – | – | – | –
CCCCC(=O)O[C@]1(C(=O)COC(C)=O)CC[C@H]2[C@@H]3CCC4=CC(=O)C=C[C@]4(C)[C@H]3[C@@H](O)C[C@@]21C [Prednisolone-21-acetate-17-valerate, prednisolone-21-acetate-17-valerate] | 0.0018 | 167 | – | – | 2.0 | 9 | 1.60 | – | – | – | –
CCC(=O)O[C@]1(C(=O)CSC(C)=O)[C@@H](C)C[C@H]2[C@@H]3CCC4=CC(=O)C=C[C@]4(C)[C@@]3(F)[C@@H](O)C[C@@]21C [betamethasone-21-thioacetate-17-propionate] | 0.010 | 30.0 | – | – | 40.0 | 2.5 | 5.60 | – | – | – | –
CCCC(=O)O[C@]1(C(=O)CSC(C)=O)CC[C@H]2[C@@H]3CCC4=CC(=O)CC[C@]4(C)[C@H]3[C@@H](O)C[C@@]21C [Example 1, 3,20-dione-11β-hydroxypregn-4-ene-21-thioacetate-17-butyrate] | 0.0082 | 36.6 | – | – | 0.23 | 350 | 0.04 | – | 6 | – | –
CCCC(=O)O[C@]1(C(=O)CSC(=O)CC)CC[C@H]2[C@@H]3CCC4=CC(=O)CC[C@]4(C)[C@H]3[C@@H](O)C[C@@]21C [Example 2, 3,20-dione-11β-hydroxypregn-4-ene-21-thiopropionate-17-butyrate] | 0.021 | 14.3 | – | – | 0.14 | > 1450 | < 0.0096 | – | – | – | –
CC(=O)OCC(=O)[C@@]1(O)CC[C@H]2[C@@H]3CCC4=CC(=O)CC[C@]4(C)[C@H]3[C@@H](O)C[C@@]21C [hydrocortisone-21-acetate] | 0.30 | 1 | – | 1 | 214 | – | – | 14 | – | – | –
CCCC(=O)O[C@]1(C(=O)CO)CC[C@H]2[C@@H]3CCC4=CC(=O)CC[C@]4(C)[C@H]3[C@@H](O)C[C@@]21C [hydrocortisone-17-butyrate] | – | – | – | – | – | – | – | – | – | only has a limited activity in the granuloma test | good similarity of activity compared with the vasoconstriction test
CCC(=O)SCC(=O)[C@@]1(OC(C)=O)[C@@H](C)C[C@H]2[C@@H]3CCC4=CC(=O)C=C[C@]4(C)[C@@]3(F)[C@@H](O)C[C@@]21C [betamethasone-21-thiopropionate-17-acetate] | 0.012 | 25.0 | – | – | 50.0 | 2.4 | 5.83 | – | – | – | –
